Laboratory results: ChEMBL document CHEMBL3507680, “University of Dundee, Gates Library screen for HepG2 cell viability”

Assay: Human HepG2 cell viability assay in 384 well format
Format: toxicity, cell-based
Design: dose 125 nL, time 70.5 hour; concentration not given beside the values
Details: HepG2 cells, read-out: Inhibition

Row | SMILES | cytotoxicity at 70.5 h [%]
1 | NC(=O)NC(=O)CCN1CCC(C(=O)c2cc(F)ccc2F)CC1 | -12.1
2 | O=C(CCN1CCC(C(=O)c2cc(F)ccc2F)CC1)NC1CCCC1 | -17.8
3 | O=C(c1cccnc1)N1CCCC1C1CCN(Cc2ccccc2)CC1 (configuration not stated) | -13.7
4 | COCC(C)NC(=O)Nc1cc(-c2ccccc2C)nn1CCO (configuration not stated) | -4.5
5 | CC(C)S(=O)(=O)NC(=O)c1cc(-c2cccc(Cl)c2)no1 | -11.8
6 | Cc1n[nH]c(C2CN(C(=O)c3ccoc3C)CCO2)n1 (configuration not stated) | 1.53
7 | CN(C)S(=O)(=O)c1cccc(CNc2cc(CO)ccc2Cl)c1 | -13.5
8 | Cc1ccc(C(=O)N2CCSCC2)cc1NC(C)C | -3.36
9 | CC(C)Oc1ncc(C(=O)N2CCC(N(C)C)CC2)cc1Cl | -9.31
10 | CCCc1nc(CN2CCCC2Cn2cccn2)cs1 (configuration not stated) | -11.6
11 | CC(C)(C)c1noc(CN2CCN(C(=O)c3ccco3)CC2)n1 | 14.9
12 | CC(C)C(=O)NC1CCN(CCO)CC1 | 4.41
13 | c1ccc(-c2nnc(CNCC3CCCN3c3cccnn3)o2)cc1 (configuration not stated) | 7.04
14 | CN(Cc1nnc(C2CC2)o1)C1CCN(CCc2cccs2)C1 (configuration not stated) | 30.4
15 | CC1CCCCN1CCNC(=O)c1ccccc1N1CCOCC1 (configuration not stated) | 19
16 | CC1Cc2ccccc2N1Cc1occc1C(=O)O (configuration not stated) | -5.89
17 | O=C(Nc1nnc(C2CC2)s1)NC1CCOc2ccccc21 (configuration not stated) | 22.9
18 | CC(C)c1nnc(NC(=O)NC2CCOc3ccccc32)s1 (configuration not stated) | -2.44
19 | CN(CC(N)=O)S(=O)(=O)c1ccc(F)cc1F | -7.55
20 | CNC(=O)CCNC(=O)c1ccccc1N1CCOCC1 | -4.86
21 | COCCN1CCC(NC(=O)C(C)C)CC1 | -1.39
22 | CC(=O)N1CCN(CC(=O)N2CCN(c3cccc(C)c3)CC2)CC1 | 24.4

Row | SMILES | cytotoxicity at 70.5 h [%]
23 | CS(=O)(=O)c1ccc(OCCNCc2cccc(Cl)c2)cc1 | 23.8
24 | CNS(=O)(=O)CCCn1nnc(-c2ccc(F)c(C)c2)n1 | -3.63
25 | Cc1ccc(OCC(=O)NC2CC2)nc1 | -2.52
26 | CS(=O)(=O)c1ccc(OCCNCc2ccc(F)cc2)cc1 | -1.74
27 | CC(C)Oc1cccc(C(O)CNC(=O)NCc2cccs2)c1 (configuration not stated) | 3.68
28 | Cc1noc(C)c1CNC(=O)N1CCCC(C)CC1 (configuration not stated) | -3.6
29 | CNC(=O)CN1CCN(C(=O)Nc2ccc(Cl)cc2F)CC1 | -1.72
30 | CCN(C(=O)C(C)C)C(c1cccnc1)c1ccc2c(c1)CCO2 (configuration not stated) | 18.4
31 | CCC(=O)N(CC)C(c1cccnc1)c1ccc2c(c1)CCO2 (configuration not stated) | -2.76
32 | CCCC(=O)N(CC)C(c1cccnc1)c1ccc2c(c1)CCO2 (configuration not stated) | -4.67
33 | CN(Cc1nnc(C2CC2)n1C)C1CCN(CCc2ccncc2)C1 (configuration not stated) | -6
34 | CC(C)c1nnc(CNCC2CCCN2c2cccnn2)o1 (configuration not stated) | -6.87
35 | c1cnnc(N2CCCC2CNCc2nnc(C3CC3)o2)c1 (configuration not stated) | -3.19
36 | COc1c(CNCc2cccnc2N2CCOCC2)c(C)nn1C | 1.9
37 | N#Cc1ccccc1C(=O)Nc1cccc(CN2CCC(CO)CC2)c1 | -5.53
38 | NC(=O)CSc1ccccc1NC(=O)C1CCCCC1 | 28.8
39 | NC(=O)CSc1ccccc1NC(=O)CC1C=CCC1 (configuration not stated) | 27.1
40 | CC(C)(C)CC(=O)Nc1ccccc1SCC(N)=O | -3.84
41 | CC(=O)NCCCSCCOc1cccc(C#N)c1 | 2.91
42 | CC(C)(O)CN1CCN(C(=O)COC2CCCCC2)CC1 | 1.44
43 | c1csc(SCC2CN=C(N3CCOCC3)S2)c1 (configuration not stated) | -3.45
44 | Cc1ccc(CNC(=O)CN2CCN(CCO)CC2)s1 | -6.79

Row | SMILES | cytotoxicity at 70.5 h [%]
45 | Cc1ccc(C(O)CNC(=O)CCCc2ccccn2)o1 (configuration not stated) | -8.17
46 | CN(CC(=O)N1CCCC1c1ccccn1)Cc1ccccc1 (configuration not stated) | -6.16
47 | Cc1ccc(C(=O)N2CCOc3nc(C)ccc32)c(F)c1 | 26.7
48 | CNC(=O)COc1cccc(CNCc2c(C)noc2C)c1 | 10.2
49 | CC(C)c1nnc(NC(=O)Cc2ccc(F)cc2)[nH]1 | -13.1
50 | CNC(=O)COc1cccc(CNC(=O)c2c(C)noc2C)c1 | -10.6
51 | CN(Cc1ccc(Cl)s1)C(=O)CN1CC(n2cccn2)C1 | -14.6
52 | CSc1ccsc1C(=O)NS(=O)(=O)c1cnn(C)c1 | -15.6
53 | CCc1cc(CNC(=O)Nc2cc(F)ccc2N2CCCCC2)on1 | -2.62
54 | O=C(CN1CCSC2(CCCCC2)C1)NCC(F)(F)F | -10.8
55 | CSc1ccsc1C(=O)NS(=O)(=O)c1ccc(F)cc1 | -7.27
56 | O=C(Nc1cc(CSCCO)ccn1)c1cc2ccccc2[nH]1 | 13.4
57 | CCOc1cccc(CCNC(=O)Cc2cccc(O)c2)n1 | -7.71
58 | CN(Cc1ccc([S+](C)[O-])cc1)c1ccc(Cl)cn1 (configuration not stated) | 20.8
59 | Cn1ncnc1CNC1CCc2cc(Cl)ccc21 (configuration not stated) | -19.7
60 | Cn1ncnc1CNC1CCCc2cc(F)ccc21 (configuration not stated) | -11.4
61 | Cc1n[nH]cc1CNC(C(=O)N1CCOCC1)c1ccccc1 (configuration not stated) | 15.2
62 | Cc1noc(C)c1CC(=O)OCc1nc(N)c2ccccc2n1 | -3
63 | Cc1cccc(C(C)(C)CNC(=O)CCSc2nnnn2C)c1 | -2.6
64 | Cc1nc(-c2ccccc2)n(CC(=O)NC(C)C2CC2)n1 (configuration not stated) | -5.73
65 | Cc1nc(-c2ccccc2C)n(CC(=O)NC(C)C)n1 | 12.9
66 | Cc1ccccc1C(C)(C)CNC(=O)CCSc1nnnn1C | -1.67

Row | SMILES | cytotoxicity at 70.5 h [%]
67 | Cc1ccc(CNc2ccc(C(=O)N3CCNC(=O)C3)cn2)cc1 | 4.12
68 | CC(C)n1cc(S(=O)(=O)NCCc2nnc3ccccn23)cn1 | 5.41
69 | COc1cccc(CNC(=O)Nc2ccc3[nH]nnc3c2)c1OC | -9.41
70 | O=S(=O)(NCCc1nnc2ccccn12)c1cccnc1 | 14.7
71 | N#Cc1ccc(N2CCN(c3cnccn3)CC2)c(C(F)(F)F)c1 | 2.94
72 | Cn1cnnc1-c1cncc(NCc2cccc3c2OCO3)c1 | -1.67
73 | Cc1cc(=O)c(C(=O)Nc2cccc(CCN3CCCC3)c2)c[nH]1 | -2.1
74 | CC(=O)c1ccc(NC(=O)NCc2cccc(N(C)C)n2)cc1C | -1.51
75 | O=S(=O)(c1cccnc1)N1CCC(OCCCc2ccccc2)C1 (configuration not stated) | -0.248
76 | Cc1ccc(F)c(C(=O)Nc2cccc(CCN3CCCC3)c2)c1 | -1.18
77 | Cc1ccc(S(=O)(=O)N2CCn3nc(C)nc3C2)c(Cl)c1 | -2.97
78 | C1CCN(CCOC2CCNCC2)C1 | -2.17
79 | N#CCCN(Cc1cccnc1)C(=O)c1ccc(-n2cnnn2)cc1 | -12.1
80 | Cn1cnnc1CNC(=O)C1CCCN(Cc2cccc(F)c2)C1 (configuration not stated) | -13.7
81 | O=C(Cn1nnc(-c2cc3ccccc3o2)n1)N1CCOCC1 | -18.1
82 | O=C1CCC(C(=O)NCCOc2cccc(Cl)c2Cl)CN1 (configuration not stated) | -13.1
83 | CC(C)CNC(=O)c1ccc(NC(=O)NC(C)C)cc1Cl | -11.5
84 | Cc1nc(NC(=O)C2CCCN(C(=O)C3CC3)C2)sc1C (configuration not stated) | -14.8
85 | CNC(=O)Cn1nnc(-c2cc3ccccc3o2)n1 | -5.34
86 | NCCNS(=O)(=O)Cc1ccc(Br)cc1 | -0.385
87 | NCCCNS(=O)(=O)Cc1ccc(Br)cc1 | -9.57
